From PubChem BioAssay AID330 (DTP/NCI, 2004)
“And” between values parts separate entries of the source, which are not always exact repeats. Equal entries are not always repeated. Toxic doses and inconclusive results are not listed. How the source made its calls: active means survival T/C of 150% or more; inactive means T/C below 125% in these data.

Tested on: P388 leukemia ip, CD2F1 mice, survival T/C
Assay: NCI In Vivo Anticancer Drug Screen. Data for tumor model P388 Leukemia (intraperitoneal) in CD2F1 (CDF1) mice
Conditions: endpoint: median survival time, higher = longer survival
Method in brief: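 Mice carrying the transplanted tumor received test compound or vehicle. Survival was recorded in each group, and the value is the treated-group measurement divided by that of the vehicle-treated control group.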

[1] = dose: 60.0 mg/kg/injection, schedule: Q01DX005 (ip), vehicle: saline with Tween-80
[2] = dose: 120.0 mg/kg/injection, schedule: Q01DX005 (ip), vehicle: saline with Tween-80
[3] = dose: 100.0 mg/kg/injection, schedule: Q04DX002 (ip), vehicle: saline with Tween-80
[4] = dose: 200.0 mg/kg/injection, schedule: Q04DX002 (ip), vehicle: saline with Tween-80
[5] = dose: 400.0 mg/kg/injection, schedule: Q04DX002 (ip), vehicle: saline with Tween-80
[6] = dose: 12.5 mg/kg/injection, schedule: Q01DX009 (ip), vehicle: distilled water + Tween-80
[7] = dose: 100.0 mg/kg/injection, schedule: Q04DX003 (ip), vehicle: saline with Tween-80
[8] = dose: 200.0 mg/kg/injection, schedule: Q04DX003 (ip), vehicle: saline with Tween-80
[9] = dose: 60.0 mg/kg/injection, schedule: Q01DX005 (ip), vehicle: Klucel (hydroxypropylcellulose) (HPC)
[10] = dose: 120.0 mg/kg/injection, schedule: Q01DX005 (ip), vehicle: Klucel (hydroxypropylcellulose) (HPC)
[11] = dose: 50.0 mg/kg/injection, schedule: Q01DX005 (ip), vehicle: saline with Tween-80
[12] = dose: 100.0 mg/kg/injection, schedule: Q01DX005 (ip), vehicle: saline with Tween-80
[13] = dose: 50.0 mg/kg/injection, schedule: Q01DX005 (ip), vehicle: Klucel (hydroxypropylcellulose) (HPC)
[14] = dose: 100.0 mg/kg/injection, schedule: Q01DX005 (ip), vehicle: Klucel (hydroxypropylcellulose) (HPC)
[15] = dose: 200.0 mg/kg/injection, schedule: Q01DX005 (ip), vehicle: Klucel (hydroxypropylcellulose) (HPC)
[16] = dose: 12.5 mg/kg/injection, schedule: Q01DX009 (ip), vehicle: saline with Tween-80
[17] = dose: 25.0 mg/kg/injection, schedule: Q01DX009 (ip), vehicle: saline with Tween-80
[18] = dose: 50.0 mg/kg/injection, schedule: Q01DX009 (ip), vehicle: saline with Tween-80
[19] = dose: 100.0 mg/kg/injection, schedule: Q01DX009 (ip), vehicle: saline with Tween-80

Measured: T/C

CCN(CC)C1CC(=O)C2(C)C3CCC4(C)C(C(C)C5CC(C)=C(CO)C(=O)O5)CCC4C3CC3OC32C1O (configuration not stated)
inactive: dose: 4.5 mg/kg/injection, schedule: Q01DX005 (ip), vehicle: Klucel (hydroxypropylcellulose) (HPC) 98 % of control | dose: 9.0 mg/kg/injection, schedule: Q01DX005 (ip), vehicle: Klucel (hydroxypropylcellulose) (HPC) 93 % of control | dose: 18.0 mg/kg/injection, schedule: Q01DX005 (ip), vehicle: Klucel (hydroxypropylcellulose) (HPC) 100 % of control | dose: 36.0 mg/kg/injection, schedule: Q01DX005 (ip), vehicle: Klucel (hydroxypropylcellulose) (HPC) 98 % of control | dose: 72.0 mg/kg/injection, schedule: Q01DX005 (ip), vehicle: Klucel (hydroxypropylcellulose) (HPC) 100 % of control

O=C(Nc1cc(Cl)cc(Cl)c1)OCCCl
inactive: [1] 100 % of control | [2] 98 % of control | dose: 240.0 mg/kg/injection, schedule: Q01DX005 (ip), vehicle: saline with Tween-80 91 % of control

COC(=O)c1ccc(C(=S)OC)cc1
inactive: [3] 108 % of control | [4] 100 % of control | [5] 101 % of control

O=[N+]([O-])c1ccc(NN=NCCCl)cc1
inactive: [6] 109 % of control

CN(C)C1(c2ccccc2)N=NN=S1C (configuration not stated)
inactive: [7] 105 % of control | [8] 105 % of control

Cc1nc(CO)cc([N+](=O)[O-])c1C
inactive: [6] 101 % of control | dose: 25.0 mg/kg/injection, schedule: Q01DX009 (ip), vehicle: distilled water + Tween-80 101 % of control | dose: 50.0 mg/kg/injection, schedule: Q01DX009 (ip), vehicle: distilled water + Tween-80 100 % of control | dose: 100.0 mg/kg/injection, schedule: Q01DX009 (ip), vehicle: distilled water + Tween-80 101 % of control | dose: 200.0 mg/kg/injection, schedule: Q01DX009 (ip), vehicle: distilled water + Tween-80 104 % of control

CN1C2CCC1c1c([nH]c3ccccc13)C2 (configuration not stated)
inactive: [1] 94 % of control | [2] 94 % of control

CC(=O)OC1(c2ccccc2)N=C(c2ccccc2)N=C1c1ccccc1 (configuration not stated)
inactive: [9] 106 % of control | [10] 110 % of control | dose: 240.0 mg/kg/injection, schedule: Q01DX005 (ip), vehicle: Klucel (hydroxypropylcellulose) (HPC) 105 % of control

CCCCOCN(COCCCC)c1ccccc1
inactive: dose: 100.0 mg/kg/injection, schedule: Q01DX001 (ip), vehicle: saline with Tween-80 104 % of control | dose: 200.0 mg/kg/injection, schedule: Q01DX001 (ip), vehicle: saline with Tween-80 113 % of control | dose: 400.0 mg/kg/injection, schedule: Q01DX001 (ip), vehicle: saline with Tween-80 109 % of control

CC(=O)Nc1ccc(N=NN(C)Cc2ccccc2)cc1
inactive: dose: 25.0 mg/kg/injection, schedule: Q01DX001 (ip), vehicle: Klucel (hydroxypropylcellulose) (HPC) 102 % of control | dose: 50.0 mg/kg/injection, schedule: Q01DX001 (ip), vehicle: Klucel (hydroxypropylcellulose) (HPC) 92 % of control

NC(=O)c1cc(Cl)nc2nc(Cl)nc(N)c12
inactive: [11] 105 % of control | dose: 50.0 mg/kg/injection, schedule: Q04DX003 (ip), vehicle: saline with Tween-80 101 % of control | [12] 105 % of control | [7] 100 % of control and 114 % of control | dose: 200.0 mg/kg/injection, schedule: Q01DX005 (ip), vehicle: saline with Tween-80 108 % of control | [8] 106 % of control | dose: 400.0 mg/kg/injection, schedule: Q01DX005 (ip), vehicle: saline with Tween-80 112 % of control | dose: 400.0 mg/kg/injection, schedule: Q04DX003 (ip), vehicle: saline with Tween-80 110 % of control and 111 % of control

CN(C)CN1C(=O)CC(c2ccccc2)C1=O (configuration not stated)
inactive: dose: 50.0 mg/kg/injection, schedule: Q01DX005 (ip), vehicle: saline 110 % of control | dose: 100.0 mg/kg/injection, schedule: Q01DX005 (ip), vehicle: saline 107 % of control | dose: 200.0 mg/kg/injection, schedule: Q01DX005 (ip), vehicle: saline 115 % of control

CC(=O)NCCCCCC(=O)N(C)C
inactive: [13] 96 % of control | [14] 90 % of control | [15] 98 % of control | dose: 400.0 mg/kg/injection, schedule: Q01DX005 (ip), vehicle: Klucel (hydroxypropylcellulose) (HPC) 98 % of control

O=S1(=O)N=C(Sc2nc3ccccc3o2)c2ccccc21
inactive: [3] 102 % of control | [4] 107 % of control | [5] 115 % of control

C[N+](C)(C)c1ccc(/C=C/[N+](=O)[O-])cc1
inactive: [16] 95 % of control | [17] 102 % of control

O=S(=O)(Nc1ncccn1)c1ccc(NCc2c3ccccc3nc3ccccc23)cc1
inactive: dose: 12.5 mg/kg/injection, schedule: Q04DX002 (ip), vehicle: Klucel (hydroxypropylcellulose) (HPC) 96 % of control | dose: 25.0 mg/kg/injection, schedule: Q04DX002 (ip), vehicle: Klucel (hydroxypropylcellulose) (HPC) 99 % of control | dose: 50.0 mg/kg/injection, schedule: Q04DX002 (ip), vehicle: Klucel (hydroxypropylcellulose) (HPC) 87 % of control and 96 % of control | dose: 100.0 mg/kg/injection, schedule: Q04DX002 (ip), vehicle: Klucel (hydroxypropylcellulose) (HPC) 87 % of control and 90 % of control | dose: 200.0 mg/kg/injection, schedule: Q04DX002 (ip), vehicle: Klucel (hydroxypropylcellulose) (HPC) 96 % of control | dose: 400.0 mg/kg/injection, schedule: Q04DX002 (ip), vehicle: Klucel (hydroxypropylcellulose) (HPC) 91 % of control and 96 % of control

N#Cc1cc2ccccc2n(Cc2ccccc2)c1=O
inactive: [13] 101 % of control | [14] 109 % of control | [15] 100 % of control

c1ccc(-c2nnn(-c3ccccc3)n2)cc1
inactive: [16] 91 % of control | [17] 91 % of control | [18] 91 % of control

c1ccc(NN=Nc2ncnc3nc[nH]c23)cc1
inactive: dose: 12.5 mg/kg/injection, schedule: Q01DX005 (ip), vehicle: saline with Tween-80 106 % of control | dose: 25.0 mg/kg/injection, schedule: Q01DX005 (ip), vehicle: saline with Tween-80 111 % of control | [11] 102 % of control and 115 % of control

CNC(=S)SC1=NS(=O)(=O)c2ccccc2N1
inactive: dose: 30.0 mg/kg/injection, schedule: Q01DX005 (ip), vehicle: Klucel (hydroxypropylcellulose) (HPC) 111 % of control | [9] 99 % of control and 110 % of control | [10] 116 % of control and 117 % of control

CN(N=Nc1ccc(C#N)cc1)C(C)(C)C
inactive: [11] 100 % of control | [12] 100 % of control

COC(=O)c1ccc(/C=C/C#N)cc1
inactive: dose: 50.0 mg/kg/injection, schedule: Q01DX009 (ip), vehicle: saline 100 % of control | dose: 100.0 mg/kg/injection, schedule: Q01DX009 (ip), vehicle: saline 102 % of control | dose: 200.0 mg/kg/injection, schedule: Q01DX009 (ip), vehicle: saline 97 % of control

CC(NC(=O)OCc1ccccc1)C(=O)Oc1cc(Cl)c(Cl)cc1Cl (configuration not stated)
inactive: [18] 109 % of control | [19] 104 % of control | dose: 200.0 mg/kg/injection, schedule: Q01DX009 (ip), vehicle: saline with Tween-80 107 % of control

c1cnc2c(c1)C1OC(S2)c2cccnc2S1
inactive: [18] 102 % of control | [19] 97 % of control
